Values after ≈ are worked out from the molar mass of the structure shown.
Conditions: buffer; pH 7.4; 200.0 µM
Work on `O=C(Cc1ccc(F)cc1)NC1CCCCCC1` yielded a solubility kinetic of over 37.4 µg/mL. `COC(C(=O)Nc1ccc(Br)cc1F)c1ccccc1` (stereo not given) gave a solubility kinetic of 26.1 µg/mL (≈ 77.2 µM). Work on `Cc1cccc(C(=O)OCC(=O)NC2CCCCCCC2)c1` yielded a solubility kinetic of 21.6 µg/mL (≈ 71.2 µM). In the case of `COc1ccc(C(=O)C2CCCN(CCO)C2)c(C)c1` (stereo not given), the solubility kinetic is reported as 30.3 µg/mL (≈ 109 µM). In the case of `CC(=O)C(Cc1ccc(Cl)nc1)Cc1ccc(Cl)nc1`, the solubility kinetic is reported as 44.9 µg/mL (≈ 145 µM). Work on `COc1ccc(NC(=O)c2sc3nc(C)cc(C)c3c2N)cc1` yielded a solubility kinetic of under 0.2 µg/mL. `O=C(NC(=S)Nc1ccccc1Br)C1CCCC1` showed a solubility kinetic of 2.7 µg/mL (≈ 8.25 µM). `COc1cc(OC)c(C(=O)OCC(=O)NC23CC4CC(CC(C4)C2)C3)cc1OC` gave a solubility kinetic of 3.9 µg/mL (≈ 9.67 µM). Molecule `Cc1ccc(NC(=O)c2ccco2)c(NC(=O)c2ccccc2)c1` has a solubility kinetic of 4.1 µg/mL (≈ 12.8 µM). `S=C(c1ccc2c(c1)OCO2)N1CCOCC1` gave a solubility kinetic of over 37.7 µg/mL. Molecule `COC(=O)c1ccc(NC(=O)CCN2CCOCC2)cc1` has a solubility kinetic of over 43.9 µg/mL. `CCCCSc1nc(O)cc(=O)n1CC` showed a solubility kinetic of 33.4 µg/mL (≈ 146 µM). In the case of `CC(C)CC(=O)Nc1ccc2c(c1)nc(CCN1CCCCC1)n2C`, the solubility kinetic is reported as over 51.4 µg/mL. `Cc1cc(C)n2nc(C(=O)NNC(=O)c3ccccc3)nc2n1` showed a solubility kinetic of over 46.5 µg/mL. `Cc1cc(C(F)(F)F)nc(SCCN2CCOCC2)c1C#N` gave a solubility kinetic of 43.3 µg/mL (≈ 131 µM). For `CN(C)C=Nc1ccc2nc3c(cc2c1)[nH]c1ccccc13`, the solubility kinetic was over 43.3 µg/mL. For `CC(Cl)C(=O)c1c[nH]c2ccccc12` (stereo not given), the solubility kinetic was 21.4 µg/mL (≈ 103 µM). In the case of `CC(C)NC(=O)[C@@H]1CSC2c3ccccc3C(=O)N21` (stereo not given in full), the solubility kinetic is reported as over 41.5 µg/mL. Work on `CN(C)/C=C1\N=C(c2cccnc2Oc2ccc(Cl)cc2)OC1=O` yielded a solubility kinetic of 1.6 µg/mL (≈ 4.65 µM). Molecule `CCNC(=S)NCCC1=c2ccccc2=N/C1=C\c1c(O)n(C)c(=O)n(C)c1=O` has a solubility kinetic of 19.3 µg/mL (≈ 46.7 µM). `O=C(c1cccc([N+](=O)[O-])c1)N1CCN(c2ncccn2)CC1` showed a solubility kinetic of over 47 µg/mL. `O=C(Nc1ncccn1)c1cc(-c2ccc(F)cc2)nc2ccccc12` showed a solubility kinetic of 44.5 µg/mL (≈ 129 µM). Molecule `Cc1ccc(C(=O)Nc2ccc3c(c2)OCCO3)cc1` has a solubility kinetic of 40.4 µg/mL (≈ 150 µM). Molecule `COc1cccc(-c2nc(N3CCCC3)c3ccccc3n2)c1O` has a solubility kinetic of under 0.2 µg/mL. Molecule `COc1ccc(Cl)cc1C(=O)n1cnc2ccccc21` has a solubility kinetic of over 43 µg/mL. Work on `Cn1c(C(=O)N2CCN(c3ccccc3)CC2)cc2cc(Cl)ccc21` yielded a solubility kinetic of 4.4 µg/mL (≈ 12.4 µM). With `CCOc1ccccc1NC(=O)Cn1c(=O)oc2cc(Cl)ccc21` the solubility kinetic was 10.5 µg/mL (≈ 30.3 µM). `CCn1c(SCc2nc3ccccc3c(=O)[nH]2)nc2ccccc21` showed a solubility kinetic of 1.1 µg/mL (≈ 3.27 µM). `COc1ccc(CCOC(=O)c2ccc(N)c([N+](=O)[O-])c2)cc1` gave a solubility kinetic of 1.1 µg/mL (≈ 3.48 µM). Work on `CCCSc1nc2sc3c(c2c(=O)n1CC)CC(C)(C)OC3` yielded a solubility kinetic of under 0.4 µg/mL. `O=C(COc1ccccc1Br)N1CCNC1=O` gave a solubility kinetic of 42.2 µg/mL (≈ 141 µM). For `Cc1cccc(OCCCn2c(=O)oc3ccccc32)c1`, the solubility kinetic was 4.6 µg/mL (≈ 16.2 µM). In the case of `CCOc1ccc2[nH]c3c(NCCN(CC)CC)ncnc3c2c1`, the solubility kinetic is reported as 43.2 µg/mL (≈ 132 µM). Molecule `Cc1sc2ncnc(SCc3ccc(C(=O)O)cc3)c2c1C` has a solubility kinetic of over 49.6 µg/mL. For `Cc1ccc2nc(-c3ccccc3)c(-c3ccccc3)nc2c1`, the solubility kinetic was under 0.3 µg/mL. Work on `OCC(O)C1OC(Nc2ccc(Br)cc2)C(O)C1O` (stereo not given) yielded a solubility kinetic of over 50.1 µg/mL. In the case of `COc1ccc(-c2cc(C(=O)N3CCCC3)c3ccccc3n2)cc1OC`, the solubility kinetic is reported as 53.9 µg/mL (≈ 149 µM). Molecule `Cc1ccc(C(=O)Cn2c(C(=O)O)cc3ccccc32)cc1` has a solubility kinetic of over 44 µg/mL. For `CCc1c(C)nc2c(OC)cccc2c1Cl`, the solubility kinetic was 7.7 µg/mL (≈ 32.7 µM). In the case of `Fc1cccc(CSc2nc3ncc(Cl)cc3[nH]2)c1`, the solubility kinetic is reported as 2.6 µg/mL (≈ 8.85 µM). In the case of `CCCCCOc1ccc(C(=O)CCN2CCOCC2)cc1.Cl`, the solubility kinetic is reported as 34.9 µg/mL. In the case of `O=C(N/N=C/c1cccs1)c1cccnc1`, the solubility kinetic is reported as over 34.7 µg/mL. Work on `O=C(CC1SCCNC1=O)Nc1ccc(Cl)cc1` (stereo not given) yielded a solubility kinetic of over 42.7 µg/mL. `CN(C)C(=O)NC1c2ccccc2-c2ccccc21` gave a solubility kinetic of over 37.8 µg/mL. Work on `COc1ccccc1OCC(=O)Nc1nc(C)c(C)s1` yielded a solubility kinetic of over 43.9 µg/mL. Molecule `O=[N+]([O-])c1cc([N+](=O)[O-])c2nonc2c1Nc1ccc(O)cc1` has a solubility kinetic of over 47.6 µg/mL. `CCCN(CC(=O)Nc1ccccc1OC)C(=O)c1ccncc1` showed a solubility kinetic of over 49.1 µg/mL. `CCc1cccc(NC(=O)c2ccc3c(=O)n4c(nc3c2)CCCCC4)c1` showed a solubility kinetic of 9.2 µg/mL (≈ 25.5 µM). With `Cc1cccc(-c2nc3ccccc3c(=O)[nH]2)c1` the solubility kinetic was 4.2 µg/mL (≈ 17.8 µM). Molecule `COc1cccc(C(N)=O)c1OC(=O)Cc1ccccc1F` has a solubility kinetic of over 45.5 µg/mL. With `O=Cc1c(NCc2ccco2)nc2ccccn2c1=O` the solubility kinetic was 19.5 µg/mL (≈ 72.4 µM). Work on `CC(C)(C)c1ccc(OCCCn2ccnc2)cc1` yielded a solubility kinetic of 25.5 µg/mL (≈ 98.7 µM). With `Cc1onc(NC(=O)NC(=O)c2c(F)cccc2Cl)c1Br` the solubility kinetic was 8.1 µg/mL (≈ 21.5 µM). For `CC(CN1CCCC1)OC(=O)c1cccc(F)c1.Cl` (stereo not given), the solubility kinetic was 39.6 µg/mL. `COc1ccc(/C=C2/N=C(SC)NC2=O)cc1OC` showed a solubility kinetic of 10.1 µg/mL (≈ 36.3 µM). Work on `COC(=O)Cn1c2ccccc2c2nc3ccccc3nc21` yielded a solubility kinetic of 0.2 µg/mL (≈ 0.687 µM). With `CCC(C)n1c(O)c(C=NCCc2ccccc2)c(=O)[nH]c1=S` (stereo not given) the solubility kinetic was 5.1 µg/mL (≈ 15.4 µM). `CCOc1ccc(NC(=O)COC(=O)c2ccc3c(c2)OCO3)cc1` showed a solubility kinetic of 4 µg/mL (≈ 11.7 µM). `CCn1c(CCc2ccccc2)nc2ccccc21.Cl` gave a solubility kinetic of 28.4 µg/mL. Molecule `O=Cc1c(-c2ccc(F)cc2)nc2ccccn12` has a solubility kinetic of 2.5 µg/mL (≈ 10.4 µM).
